Experiment [1] concerns the target PIM2 (human) (UniProt Q9P1W9). The experiment is described as follows: KINOMEscan competition binding. As to conditions: compound 10.0 µM.
The target of a further experiment is CDK16 (human) (UniProt Q00536). Briefly: KINOMEscan competition binding. As to conditions: compound 10.0 µM.
The next experiment deals with MAP2K3 (human) (UniProt P46734). Briefly: KINOMEscan competition binding. As to conditions: compound 10.0 µM.
The target in the next experiment is TAOK1 (human) (UniProt Q7L7X3). Briefly: KINOMEscan competition binding. As to conditions: compound 10.0 µM.
Experiment [2] has as its target PIM1 (human) (UniProt P11309). Briefly: KINOMEscan competition binding. As to conditions: compound 10.0 µM.
Experiment [3] deals with EGFR (human), P00533 [G719S]. Briefly: KINOMEscan competition binding. As to conditions: compound 10.0 µM.
A further experiment has as its target HIPK1 (human) (UniProt Q86Z02). Briefly: KINOMEscan competition binding. As to conditions: compound 10.0 µM.
A further experiment addresses PIM3 (human) (UniProt Q86V86). Briefly: KINOMEscan competition binding. As to conditions: compound 10.0 µM.
For the next experiment, the target named is MAPK15 (human) (UniProt Q8TD08). The experiment is described as follows: KINOMEscan competition binding. As to conditions: compound 10.0 µM.
Experiment [4] addresses PIM2 (human) (UniProt Q9P1W9). The experiment is described as follows: SelectScreen, TR FRET.
Experiment [5] addresses PIM1 (human) (UniProt P11309). Briefly: SelectScreen, TR FRET. (In general: Time-resolved FRET reads energy transfer from a long-lived donor to a nearby acceptor.)
A further experiment addresses PIK3CG (human) (UniProt P48736). The experiment is described as follows: KINOMEscan competition binding. As to conditions: compound 10.0 µM.
A further experiment has as its target PLK4 (human) (UniProt O00444). The experiment is described as follows: KINOMEscan competition binding. As to conditions: compound 10.0 µM.
The next experiment has as its target STK17B (human) (UniProt O94768). Briefly: KINOMEscan competition binding. As to conditions: compound 10.0 µM.
A further experiment has as its target GSK3A (human) (UniProt P49840). Briefly: KINOMEscan competition binding. As to conditions: compound 10.0 µM.
The next experiment concerns the target STK17A (human) (UniProt Q9UEE5). The experiment is described as follows: KINOMEscan competition binding. As to conditions: compound 10.0 µM.
The next experiment has as its target ULK2 (human) (UniProt Q8IYT8). The experiment is described as follows: KINOMEscan competition binding. As to conditions: compound 10.0 µM.
The next experiment addresses CHUK (human) (UniProt O15111). The experiment is described as follows: KINOMEscan competition binding. As to conditions: compound 10.0 µM.
The target in the next experiment is PLK3 (human) (UniProt Q9H4B4). The experiment is described as follows: KINOMEscan competition binding. As to conditions: compound 10.0 µM.
For another experiment, the target named is TTK (human) (UniProt P33981). The experiment is described as follows: KINOMEscan competition binding. As to conditions: compound 10.0 µM.
The target of another experiment is STK33 (human) (UniProt Q9BYT3). The experiment is described as follows: KINOMEscan competition binding. As to conditions: compound 10.0 µM.
The target of the next experiment is PLK1 (human) (UniProt P53350). Briefly: KINOMEscan competition binding. As to conditions: compound 10.0 µM.
In another experiment the target is GAK (human) (UniProt O14976). Briefly: KINOMEscan competition binding. As to conditions: compound 10.0 µM.
For a further experiment, the target named is FLT3 (human) (UniProt P36888). The experiment is described as follows: KINOMEscan competition binding. As to conditions: compound 10.0 µM.
For another experiment, the target named is PTK2 (human) (UniProt Q05397). Briefly: KINOMEscan competition binding. As to conditions: compound 10.0 µM.
Another experiment has as its target RPS6KA1 KD2 (human) (UniProt Q15418). Briefly: KINOMEscan competition binding. As to conditions: compound 10.0 µM.
Another experiment has as its target RPS6KA6 KD2 (human) (UniProt Q9UK32). Briefly: KINOMEscan competition binding. As to conditions: compound 10.0 µM.
A further experiment concerns the target MYLK (human) (UniProt Q15746). The experiment is described as follows: KINOMEscan competition binding. As to conditions: compound 10.0 µM.
The target of another experiment is RPS6KA2 KD2 (human) (UniProt Q15349). The experiment is described as follows: KINOMEscan competition binding. As to conditions: compound 10.0 µM.
Another experiment concerns the target DCLK1 (human) (UniProt O15075). Briefly: KINOMEscan competition binding. As to conditions: compound 10.0 µM.
The target in another experiment is RPS6KA4 KD2 (human) (UniProt O75676). The experiment is described as follows: KINOMEscan competition binding. As to conditions: compound 10.0 µM.
For a further experiment, the target named is MAPK7 (human) (UniProt Q13164). The experiment is described as follows: KINOMEscan competition binding. As to conditions: compound 10.0 µM.
The target in a further experiment is DAPK1 (human) (UniProt P53355). Briefly: KINOMEscan competition binding. As to conditions: compound 10.0 µM.
The target of the next experiment is CSNK2A2 (human) (UniProt P19784). Briefly: KINOMEscan competition binding. As to conditions: compound 10.0 µM.
Experiment [6] addresses TYK2 JH2 pseudokinase (human) (UniProt P29597). The experiment is described as follows: KINOMEscan competition binding. As to conditions: compound 10.0 µM.
The next experiment deals with TGFBR2 (human) (UniProt P37173). The experiment is described as follows: KINOMEscan competition binding. As to conditions: compound 10.0 µM.
The target in the next experiment is ACVR2B (human) (UniProt Q13705). Briefly: KINOMEscan competition binding. As to conditions: compound 10.0 µM.
A further experiment has as its target CLK1 (human) (UniProt P49759). Briefly: KINOMEscan competition binding. As to conditions: compound 10.0 µM.
In the next experiment the target is DAPK2 (human) (UniProt Q9UIK4). Briefly: KINOMEscan competition binding. As to conditions: compound 10.0 µM.
The next experiment concerns the target CLK4 (human) (UniProt Q9HAZ1). The experiment is described as follows: KINOMEscan competition binding. As to conditions: compound 10.0 µM.

Kinase still bound, per cent of control and IC50 data for 20 compounds are collected here from the kinase profiling compilation of Christmann-Franck et al. (2016).

The structures appear in SMILES notation.

Sequence of HIPK1 (human) (Q86Z02 whole entry, looked up): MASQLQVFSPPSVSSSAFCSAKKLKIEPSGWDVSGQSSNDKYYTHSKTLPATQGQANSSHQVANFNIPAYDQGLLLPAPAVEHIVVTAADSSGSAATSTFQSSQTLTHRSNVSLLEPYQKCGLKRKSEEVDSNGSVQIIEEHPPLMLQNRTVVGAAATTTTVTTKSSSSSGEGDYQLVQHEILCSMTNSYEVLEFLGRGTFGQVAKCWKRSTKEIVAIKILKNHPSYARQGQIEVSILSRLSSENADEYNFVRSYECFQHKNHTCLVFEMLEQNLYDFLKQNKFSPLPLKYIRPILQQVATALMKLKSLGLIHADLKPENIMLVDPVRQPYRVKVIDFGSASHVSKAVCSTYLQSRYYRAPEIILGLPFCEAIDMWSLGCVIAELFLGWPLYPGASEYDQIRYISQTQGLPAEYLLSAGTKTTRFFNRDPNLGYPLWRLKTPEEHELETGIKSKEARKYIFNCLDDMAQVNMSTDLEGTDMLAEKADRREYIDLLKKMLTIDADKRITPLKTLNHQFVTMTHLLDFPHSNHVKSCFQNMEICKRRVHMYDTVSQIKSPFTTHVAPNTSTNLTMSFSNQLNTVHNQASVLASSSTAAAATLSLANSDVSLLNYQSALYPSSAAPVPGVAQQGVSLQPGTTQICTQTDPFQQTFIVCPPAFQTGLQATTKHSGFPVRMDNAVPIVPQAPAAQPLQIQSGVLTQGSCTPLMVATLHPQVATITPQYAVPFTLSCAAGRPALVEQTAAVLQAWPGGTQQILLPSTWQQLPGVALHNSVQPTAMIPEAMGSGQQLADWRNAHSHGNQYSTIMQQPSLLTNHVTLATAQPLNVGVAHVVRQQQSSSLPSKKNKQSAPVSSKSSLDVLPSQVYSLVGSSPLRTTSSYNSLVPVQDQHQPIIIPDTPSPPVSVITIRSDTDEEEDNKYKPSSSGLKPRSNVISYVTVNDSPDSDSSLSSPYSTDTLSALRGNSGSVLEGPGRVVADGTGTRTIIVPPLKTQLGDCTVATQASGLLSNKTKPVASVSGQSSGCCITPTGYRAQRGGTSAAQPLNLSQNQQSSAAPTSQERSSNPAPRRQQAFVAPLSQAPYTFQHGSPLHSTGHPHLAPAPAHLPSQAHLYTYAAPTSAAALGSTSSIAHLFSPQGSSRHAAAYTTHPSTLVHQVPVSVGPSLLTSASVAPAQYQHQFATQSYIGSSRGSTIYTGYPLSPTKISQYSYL
Sequence of PLK1 (human) (P53350 whole entry, looked up): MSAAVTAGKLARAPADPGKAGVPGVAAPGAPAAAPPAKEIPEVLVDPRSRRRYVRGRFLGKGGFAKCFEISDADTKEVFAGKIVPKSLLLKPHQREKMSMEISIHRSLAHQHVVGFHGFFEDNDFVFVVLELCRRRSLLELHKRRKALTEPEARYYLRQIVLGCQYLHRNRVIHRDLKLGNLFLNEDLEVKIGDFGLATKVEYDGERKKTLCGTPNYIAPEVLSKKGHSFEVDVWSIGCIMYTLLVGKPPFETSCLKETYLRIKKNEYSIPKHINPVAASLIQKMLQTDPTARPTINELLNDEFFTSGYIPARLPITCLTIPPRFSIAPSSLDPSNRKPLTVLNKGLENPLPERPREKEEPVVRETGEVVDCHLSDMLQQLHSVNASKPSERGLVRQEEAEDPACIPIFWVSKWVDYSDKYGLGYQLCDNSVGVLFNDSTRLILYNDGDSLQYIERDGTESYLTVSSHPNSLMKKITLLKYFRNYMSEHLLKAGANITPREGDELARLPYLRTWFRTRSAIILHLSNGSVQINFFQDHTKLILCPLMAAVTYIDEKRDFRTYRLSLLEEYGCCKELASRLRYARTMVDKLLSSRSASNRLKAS
Sequence of MYLK (human) (Q15746 whole entry, looked up): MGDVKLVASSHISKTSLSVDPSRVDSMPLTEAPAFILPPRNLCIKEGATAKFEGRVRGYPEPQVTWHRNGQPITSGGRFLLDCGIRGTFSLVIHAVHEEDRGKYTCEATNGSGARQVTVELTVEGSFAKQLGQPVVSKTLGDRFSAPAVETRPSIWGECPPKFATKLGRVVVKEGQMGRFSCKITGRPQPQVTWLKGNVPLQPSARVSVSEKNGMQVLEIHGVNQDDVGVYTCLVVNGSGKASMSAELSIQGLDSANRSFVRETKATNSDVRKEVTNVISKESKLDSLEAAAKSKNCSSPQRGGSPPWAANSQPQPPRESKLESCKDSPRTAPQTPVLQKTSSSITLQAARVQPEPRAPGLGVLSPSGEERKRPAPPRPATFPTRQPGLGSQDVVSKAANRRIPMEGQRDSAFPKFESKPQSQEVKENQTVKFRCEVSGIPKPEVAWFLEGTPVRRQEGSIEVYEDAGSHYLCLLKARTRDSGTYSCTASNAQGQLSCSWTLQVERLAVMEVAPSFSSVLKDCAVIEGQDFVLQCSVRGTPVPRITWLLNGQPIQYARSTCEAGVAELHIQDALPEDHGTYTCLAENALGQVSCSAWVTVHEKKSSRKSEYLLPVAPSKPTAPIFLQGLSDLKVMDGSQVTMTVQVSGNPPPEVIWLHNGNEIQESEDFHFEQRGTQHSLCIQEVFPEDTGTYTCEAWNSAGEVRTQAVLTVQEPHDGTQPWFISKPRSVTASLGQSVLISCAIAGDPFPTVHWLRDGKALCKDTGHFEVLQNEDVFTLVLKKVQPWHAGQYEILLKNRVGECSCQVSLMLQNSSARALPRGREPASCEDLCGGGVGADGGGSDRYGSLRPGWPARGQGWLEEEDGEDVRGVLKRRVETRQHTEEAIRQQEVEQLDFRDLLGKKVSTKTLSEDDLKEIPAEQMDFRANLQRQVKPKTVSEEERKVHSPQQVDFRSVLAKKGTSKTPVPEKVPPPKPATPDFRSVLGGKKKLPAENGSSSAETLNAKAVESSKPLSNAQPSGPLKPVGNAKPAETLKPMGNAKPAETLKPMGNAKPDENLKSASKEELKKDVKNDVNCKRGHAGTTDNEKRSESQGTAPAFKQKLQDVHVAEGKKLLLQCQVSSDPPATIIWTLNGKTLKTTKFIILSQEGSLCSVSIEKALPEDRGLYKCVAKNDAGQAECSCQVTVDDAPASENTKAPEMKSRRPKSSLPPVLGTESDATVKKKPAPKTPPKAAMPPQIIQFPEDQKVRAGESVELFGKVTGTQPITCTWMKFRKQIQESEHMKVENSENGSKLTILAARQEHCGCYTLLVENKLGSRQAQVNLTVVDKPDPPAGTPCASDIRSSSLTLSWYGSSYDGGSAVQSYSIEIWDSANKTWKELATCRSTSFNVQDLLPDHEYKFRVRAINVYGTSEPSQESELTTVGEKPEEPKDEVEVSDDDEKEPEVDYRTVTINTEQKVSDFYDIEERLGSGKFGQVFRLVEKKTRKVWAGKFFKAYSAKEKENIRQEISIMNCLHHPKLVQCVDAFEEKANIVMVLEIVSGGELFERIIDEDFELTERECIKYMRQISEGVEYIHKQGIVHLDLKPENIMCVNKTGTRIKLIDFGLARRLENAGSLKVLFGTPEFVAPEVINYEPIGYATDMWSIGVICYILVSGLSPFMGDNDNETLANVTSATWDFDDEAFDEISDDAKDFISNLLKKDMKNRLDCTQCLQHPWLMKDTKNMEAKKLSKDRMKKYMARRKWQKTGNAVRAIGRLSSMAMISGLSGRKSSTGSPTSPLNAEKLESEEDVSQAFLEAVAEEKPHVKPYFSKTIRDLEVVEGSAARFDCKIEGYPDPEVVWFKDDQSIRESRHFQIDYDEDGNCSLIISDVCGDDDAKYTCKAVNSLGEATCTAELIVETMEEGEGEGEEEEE
Sequence of STK17A (human) (Q9UEE5 whole entry, looked up): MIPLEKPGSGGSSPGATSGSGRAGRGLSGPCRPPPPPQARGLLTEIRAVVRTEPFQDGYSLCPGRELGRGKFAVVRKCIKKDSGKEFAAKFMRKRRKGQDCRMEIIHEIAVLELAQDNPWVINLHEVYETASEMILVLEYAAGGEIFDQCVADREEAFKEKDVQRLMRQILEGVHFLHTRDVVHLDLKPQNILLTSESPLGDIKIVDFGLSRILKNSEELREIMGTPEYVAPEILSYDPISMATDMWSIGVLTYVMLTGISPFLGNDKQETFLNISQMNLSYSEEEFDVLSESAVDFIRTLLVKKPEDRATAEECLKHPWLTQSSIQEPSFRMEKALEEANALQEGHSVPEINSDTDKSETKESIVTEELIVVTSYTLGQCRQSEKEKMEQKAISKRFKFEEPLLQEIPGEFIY
Sequence of TTK (human) (P33981 whole entry, looked up): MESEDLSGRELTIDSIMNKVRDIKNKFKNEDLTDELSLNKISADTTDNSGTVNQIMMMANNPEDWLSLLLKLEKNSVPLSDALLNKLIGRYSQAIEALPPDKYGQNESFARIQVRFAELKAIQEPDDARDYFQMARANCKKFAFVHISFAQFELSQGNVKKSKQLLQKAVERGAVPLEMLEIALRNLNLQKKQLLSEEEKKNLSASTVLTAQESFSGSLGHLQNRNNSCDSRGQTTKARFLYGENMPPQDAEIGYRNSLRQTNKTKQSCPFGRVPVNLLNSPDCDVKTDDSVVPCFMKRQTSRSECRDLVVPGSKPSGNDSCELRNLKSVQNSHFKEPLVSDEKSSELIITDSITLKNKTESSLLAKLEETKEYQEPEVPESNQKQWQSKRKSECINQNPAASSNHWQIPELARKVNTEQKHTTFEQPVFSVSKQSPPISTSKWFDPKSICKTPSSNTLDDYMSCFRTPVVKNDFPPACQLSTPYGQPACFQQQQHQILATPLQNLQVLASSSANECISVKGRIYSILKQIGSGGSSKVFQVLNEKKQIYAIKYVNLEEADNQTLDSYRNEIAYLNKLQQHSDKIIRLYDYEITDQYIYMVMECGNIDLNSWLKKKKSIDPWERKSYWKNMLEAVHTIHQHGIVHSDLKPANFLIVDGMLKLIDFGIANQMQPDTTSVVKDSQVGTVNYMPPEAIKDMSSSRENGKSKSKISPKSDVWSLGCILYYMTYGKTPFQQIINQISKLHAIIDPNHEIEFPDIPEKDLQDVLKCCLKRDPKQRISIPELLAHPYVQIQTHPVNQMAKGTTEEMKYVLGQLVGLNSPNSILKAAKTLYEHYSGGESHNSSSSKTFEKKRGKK

In the case of `CS(=O)(=O)Nc1ccc(-c2cccc(/C=C3\SC(=N)NC3=O)n2)cc1`, the kinase still bound, per cent of control at PIM2 (human) [1] amounted to 9.2%; at CDK16 (human), 10%; at MAP2K3 (human), 21%; at TAOK1 (human), 26%; on PIM1 (human) [2], 23%; in experiment [3], 16%. Moreover, the kinase still bound, per cent of control at HIPK1 (human) was found to be 0.4%; on PIM3 (human), 13%; at MAPK15 (human), 22%.
For `NS(=O)(=O)c1ccc(-c2ccc(/C=C3\SC(=S)NC3=O)o2)cc1`, the figures for the IC50 at PIM2 (human) [4] and at PIM1 (human) [5] were 177 nM and 305 nM, respectively. For the same compound, the kinase still bound, per cent of control at CDK16 (human) stood at 10%; on PIM1 (human) [2], 1.8%; at PIK3CG (human), 22%; at PIM3 (human), 2.2%; at PLK4 (human) it was 14%.
For the compound `CN1C(=N)NC(=O)/C1=C/c1ccc(-c2cccc3ccccc23)o1`, the values for the IC50 at PIM2 (human) [4] and against PIM1 (human) [5] were 9210 nM and over 10000 nM, respectively. The kinase still bound, per cent of control on PIM2 (human) [1] turned out to be 2.6%; on STK17B (human), 32%; at PIM1 (human) [2], 27%; at GSK3A (human), 14%; on STK17A (human) it was 33%; on PIM3 (human), 9.6%.
At ULK2 (human), `NS(=O)(=O)c1ccc(-c2ccc(C=C3C(=O)c4ccccc4C3=O)o2)cc1` came in with a kinase still bound, per cent of control of 22%.
`NS(=O)(=O)c1ccc(-c2ccc(/C=C3\NC(=S)NC3=O)o2)cc1` displayed a kinase still bound, per cent of control at CHUK (human) of 32%.
Regarding `CCOc1cc(N2CCC(O)CC2)ccc1Nc1ncc2c(n1)N(C1CCCC1)CCC(=O)N2C`, the kinase still bound, per cent of control on PLK3 (human) turned out to be 15%; on TTK (human), 3.2%; on STK33 (human) it was 32%; at PLK1 (human), 4.3%; at GAK (human) it was 2%; at PLK4 (human) it was 27%. Further, the results for the kinase still bound, per cent of control at FLT3 (human) and at PTK2 (human) were 0% and 24%, respectively.
On to `CN1C(=N)NC(=O)/C1=C/c1ccc(-c2cncc3ccccc23)o1`, for which the IC50 (commonly the concentration that gives 50% inhibition) was found to be 3060 nM against PIM2 (human) [4] and 3560 nM against PIM1 (human) [5].
With `N=C1NC(=O)/C(=C/c2ccc(-c3ccc(C(=O)Nc4ccc(N5CCNCC5)cc4)cc3)o2)S1`, the figures for the half-maximal inhibitory concentration (IC50) at PIM2 (human) [4] and at PIM1 (human) [5] were 214 nM and 151 nM, respectively.
As to `N=C1NC(=O)/C(=C/c2ccc(-c3cccc4ccccc34)o2)S1`, the IC50 against PIM2 (human) [4] was 1200 nM; against PIM1 (human) [5], 2170 nM.
In the case of `O=C1NC(=S)S/C1=C\c1ccc(-c2csc3ccccc23)o1`, the IC50 came out at 375 nM on PIM2 (human) [4] and 722 nM at PIM1 (human) [5].
As for `CC(C)Oc1cc(N2CCC(N(C)C)CC2)ccc1Nc1ncc2c(n1)N1CCC[C@H]1CC(=O)N2C`, the kinase still bound, per cent of control at RPS6KA1 KD2 (human) stood at 34%; at TTK (human) it was 12%; at RPS6KA6 KD2 (human), 24%; on MYLK (human) it was 26%; on RPS6KA2 KD2 (human) it was 9.4%; at DCLK1 (human), 7.4%.
On to `CC(C)Oc1cc(N2CCC(O)CC2)ccc1Nc1ncc2c(n1)N1CCC[C@H]1CC(=O)N2C`, for which the kinase still bound, per cent of control at PLK3 (human) is 16%; on TTK (human), 5%; on RPS6KA4 KD2 (human) it was 32%; at PLK1 (human) it was 21%.
On to `Cc1cn(-c2cc(NC(=O)c3cccc4cc(-c5ccc(/C=C6\SC(=O)NC6=O)o5)ccc34)cc(C(F)(F)F)c2)cn1`, for which the values for the 50% inhibitory concentration (IC50) at PIM2 (human) [4] and on PIM1 (human) [5] were 1430 nM and 5630 nM, respectively.
The corresponding values for `CCN1CCN(Cc2cc(NC(=O)c3cccc4cc(-c5ccc(/C=C6\SC(=N)NC6=O)o5)ccc34)cc(C(F)(F)F)c2)CC1` are 814 nM and 774 nM.
As to `N=C1NC(=O)/C(=C/c2ccc(-c3ccc4c(C(=O)Nc5cccc(C(F)(F)F)c5)cccc4c3)o2)S1`, the IC50 is 3420 nM against PIM2 (human) [4] and over 10000 nM against PIM1 (human) [5].
As for `NC1=N/C(=C\c2ccc(-c3ccc(S(N)(=O)=O)cc3)o2)C(=O)N1`, the kinase still bound, per cent of control at RPS6KA4 KD2 (human) was found to be 14%; on MAP2K3 (human) it was 13%; at PIM1 (human) [2], 9.5%; at PIM3 (human) it was 6%.
Take `CC(C)Oc1cc(C(=O)N2CCC(N3CCN(C)CC3)CC2)ccc1Nc1ncc2c(n1)N(C1CCCC1)[C@@H]1CCC[C@@H]1C(=O)N2C`: the kinase still bound, per cent of control was found to be 24% on PLK1 (human), 18% on MYLK (human) and 4.8% at MAPK7 (human).
Consider `CN1C(=N)NC(=O)/C1=C/c1ccc(-c2ccc(S(N)(=O)=O)cc2)o1`, for which the kinase still bound, per cent of control worked out at 11% at MAP2K3 (human), 21% on PIM1 (human) [2] and 7.4% on PIM3 (human).
On to `O=C1NC(=O)/C(=C/c2ccc(-c3ccc(C(=O)Nc4ccc(N5CCNCC5)cc4)cc3)o2)S1`, for which the IC50 against PIM2 (human) [4] came out at 133 nM; against PIM1 (human) [5], 246 nM. The kinase still bound, per cent of control is 0.75% on PIM2 (human) [1]; 0.65% on STK17B (human); 34% at DAPK1 (human); 1.4% at PIM1 (human) [2]; 27% at MYLK (human); 21% on CSNK2A2 (human). Further, the kinase still bound, per cent of control in [6] came to 14%; on STK17A (human), 20%; on HIPK1 (human), 1.1%; on PIK3CG (human), 17%; on GAK (human), 26%; on PIM3 (human) it was 1.2%.
Consider `N=C1NC(=O)/C(=C/c2ccc(-c3ccc(Cl)cc3)o2)S1`, for which the IC50 on PIM2 (human) [4] was 7830 nM; against PIM1 (human) [5], 895 nM. Also, the kinase still bound, per cent of control on TGFBR2 (human) came to 10%; at PIM2 (human) [1], 1.4%; on CDK16 (human), 14%; on STK17B (human) it was 2.1%; at MAP2K3 (human), 5.6%; at TAOK1 (human) it was 11%. For the same compound, the kinase still bound, per cent of control at PIM1 (human) [2] was 9.2%; at ACVR2B (human), 25%; at GSK3A (human), 7.8%; at STK17A (human), 1.8%; at HIPK1 (human) it was 0.2%; at CLK1 (human), 34%. In addition, the kinase still bound, per cent of control at DAPK2 (human) is 33%; at CLK4 (human), 30%; at PIM3 (human), 3.9%; on MAPK15 (human), 1.4%.
